Experimental data taken from US7732444B2, “2-(amino-substituted)-4-aryl pyrimidines and related compounds useful for treating inflammatory diseases” (Millennium Pharmaceuticals, Inc., priority 2004, dated 2010).

Molecular target: T1, full length PKC θ (Homo sapiens, UniProt Q04759)
T1 construct: 15 μL of full length PKC θ (Panvera Corporation); purchased Panvera Corporation
Assay: PKC-theta isoform inhibition assay (HTRF, 384 well plate)
Type: biochemical
Conditions: full length PKC θ at 27 pM, peptide substrate 300 nM + 3 μM ATP, HTRF readout
Experimental: An in vitro assay for detecting and measuring inhibition activity against PKC-theta isoform by candidate pharmacological agents is useful for evaluating and selecting a compound that modulates PKC-theta isoform. An IC50 value can be calculated after running the assay. Following is an assay protocol for measuring PKC-theta isoform.
Per well of a 384 well plate, compounds at various concentrations in 5 μL of 20% DMSO were pre-incubated for about 30 minutes at about 25° C. with 15 μL of full length PKC θ (Panvera Corporation) at 27 pM in an assay buffer (25 mM Hepes, pH 7.5, 5 mM DTT, 10 mM MgCl2, 10 mM 2-glycerophosphate, 12.5 μg/mL 1,2-dioleoyl-rac-glycerol, 10 μg/mL L-α-phosphatidyl-L-serine, 0.1% Bovine Serum Albumin). 10 μL of peptide substrate (biotin-(CH2)6— RFARKGSLRQKNV —CONH2) at 300 nM+3 μM ATP were added to each well and incubated for about 1 hour before quenching with 10 μL of 250 mM EDTA. 40 μL of detection buffer (25 mM Hepes, pH 7.5, 100 mM KF, 0.1% Bovine Serum Albumin, 0.01% Tween20) containing 2 nM anti-phospho antibody 2B9 (MBL International) labeled with europium cryptate (Cis-Bio International) and 0.0064 μg/mL streptavidin-allophycocyanin (Prozyme) was added to each well and incubated for two hours. Signal was then read on a Discovery HTRF (Packard).

T1 sequence (Q04759 whole entry): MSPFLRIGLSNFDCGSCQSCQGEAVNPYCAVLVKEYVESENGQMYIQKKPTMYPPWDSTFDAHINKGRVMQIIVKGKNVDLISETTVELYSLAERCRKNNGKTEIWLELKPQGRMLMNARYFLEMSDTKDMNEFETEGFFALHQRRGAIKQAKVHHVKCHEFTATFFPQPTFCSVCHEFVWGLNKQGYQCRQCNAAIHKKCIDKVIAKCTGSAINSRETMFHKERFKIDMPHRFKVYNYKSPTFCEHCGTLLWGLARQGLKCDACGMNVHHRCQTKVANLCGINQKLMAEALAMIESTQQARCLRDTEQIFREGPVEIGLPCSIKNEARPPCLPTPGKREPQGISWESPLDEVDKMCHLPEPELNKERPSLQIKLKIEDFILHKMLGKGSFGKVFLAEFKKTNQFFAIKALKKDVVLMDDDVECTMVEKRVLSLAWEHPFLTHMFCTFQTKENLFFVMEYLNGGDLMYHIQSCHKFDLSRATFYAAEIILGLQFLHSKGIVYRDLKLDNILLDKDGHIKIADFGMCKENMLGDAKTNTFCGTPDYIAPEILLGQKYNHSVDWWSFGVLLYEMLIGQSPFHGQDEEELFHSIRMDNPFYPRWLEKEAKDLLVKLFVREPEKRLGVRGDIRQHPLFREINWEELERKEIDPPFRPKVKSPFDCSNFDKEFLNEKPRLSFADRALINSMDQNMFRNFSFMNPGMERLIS

IC50, < 100 nM:
CN1CCN(Cc2cccc(-c3ccnc(NCCc4ccc(O)cc4)n3)c2)CC1 [Compound 81, 4-(2-{4-[3-(4-Methyl-piperazin-1-ylmethyl)-phenyl]-pyrimidin-2-ylamino}-ethyl)-phenol]
CC(c1cccc(-c2ccnc(NCCc3ccc(O)cc3)n2)c1)N(CCCN)S(C)(=O)=O (stereo not drawn) [Compound 104]
COc1cc(CCNc2nccc(-c3cccc(OC(C)C)c3)n2)ccc1O [Compound 107, 4-{2-[4-(3-Isopropoxy-phenyl)-pyrimidin-2-ylamino]-ethyl}-2-methoxy-phenol]
CC(=O)N(Cc1cccc(-c2ccnc(NCCc3ccc(O)cc3)n2)c1)CC1CCNC1 (stereo not drawn) [Compound 120, N-(3-{2-[2-(4-Hydroxy-phenyl)-ethylamino]-pyrimidin-4-yl}-benzyl)-N-pyrrolidin-3-ylmethyl-acetamide]
CC(O)c1cccc(-c2ccnc(NCCc3ccc(O)cc3)n2)c1 (stereo not drawn) [Compound 121, 4-(2-{4-[3-(1-Hydroxy-ethyl)-phenyl]-pyrimidin-2-ylamino}-ethyl)-phenol]
CCN(CC)CCCNCc1cccc(-c2ccnc(NCCc3ccc(O)cc3)n2)c1 [Compound 125, 4-[2-(4-{3-[(3-Diethylamino-propylamino)-methyl]-phenyl}-pyrimidin-2-ylamino)-ethyl]-phenol]
CCN(CC)CCCN(CC)Cc1cccc(-c2ccnc(NCCc3ccc(O)cc3)n2)c1 [Compound 126]
C[C@H]1CNCCN1Cc1cccc(-c2ccnc(NCCc3cccc(F)c3)n2)c1 [Compound 130, [2-(3-Fluoro-phenyl)-ethyl]-{4-[3-(2-(S)-methyl-piperazin-1-ylmethyl)-phenyl]-pyrimidin-2-yl}-amine]
CCNCc1cccc(-c2ccnc(NCCc3ccc(O)cc3)n2)c1 [Compound 131, 4-{2-[4-(3-Ethylaminomethyl-phenyl)-pyrimidin-2-ylamino]-ethyl}-phenol]
CC(C)NCc1cccc(-c2ccnc(NCCc3ccc(O)c(Cl)c3)n2)c1 [Compound 132, 2-Chloro-4-(2-{4-[3-(isopropylamino-methyl)-phenyl]-pyrimidin-2-ylamino}-ethyl)-phenol]
CS(=O)(=O)N(Cc1cccc(-c2nc(NCCc3ccc(O)cc3)ncc2F)c1)C1CCNCC1 [Compound 134, N-(3-{5-Fluoro-2-[2-(4-hydroxy-phenyl)-ethylamino]-pyrimidin-4-yl}-benzyl)-N-piperidin-4-yl-methanesulfonamide]
CS(=O)(=O)N(Cc1cccc(-c2nc(NCCc3ccc(O)c(Cl)c3)ncc2F)c1)C1CCNCC1 [Compound 142, N-(3-{2-[2-(3-Chloro-4-hydroxy-phenyl)-ethylamino]-5-fluoro-pyrimidin-4-yl}-benzyl)-N-piperidin-4-yl-methanesulfonamide]
CCN(CCCN)Cc1cccc(-c2nc(NCCc3ccc(O)c(F)c3)ncc2F)c1 [Compound 143, 4-{2-[4-(3-{[(3-Amino-propyl)-ethyl-amino]-methyl}-phenyl)-5-fluoro-pyrimidin-2-ylamino]-ethyl}-2-fluoro-phenol]
[2H]C([2H])(CNc1nccc(-c2cccc(CN3CCNC[C@@H]3C)c2)n1)c1cc(F)cc(F)c1 [Compound 200, [2-(3,5-Difluoro-phenyl)-2,2 dideuteroethyl]-{4-[3-(2(S)-methyl-piperazin-1-ylmethyl)-phenyl]-pyrimidin-2-yl}-amine]
CC(C)(C)NCc1cccc(-c2ccnc(NCCc3ccc(O)c(Cl)c3)n2)c1 [Compound 218, 4-(2-{4-[3-(tert-Butylamino-methyl)-phenyl]-pyrimidin-2ylamino}-ethyl)-2-chloro-phenol]
C[C@H]1CNCC[C@H]1NCc1cccc(-c2ccnc(NCCc3ccc(O)cc3)n2)c1 [Compound 249, 4-[2-(4-{3-[(3(S)-Methyl-piperidin-4(R)-ylamino)-methyl]-phenyl}-pyrimidin-2-ylamino)-ethyl]-phenol]
NC(=O)C1CNCCN1Cc1cccc(-c2ccnc(NCCc3ccc(O)cc3)n2)c1 (stereo not drawn) [Compound 254, 1-(3-{2-[2-(4-Hydroxy-phenyl)-ethylamino]-pyrimidin-4-yl}-benzyl)-piperazine-2-carboxylic acid amide]
Oc1ccc(CCNc2nccc(-c3cccc(CN4CC5CC4CN5)c3)n2)cc1Cl (stereo not drawn) [Compound 265, 2-Chloro-4-(2-{4-[3-(2,5-diaza-bicyclo[2.2.1]hept-2-ylmethyl)-phenyl]-pyrimidin-2-ylamino}-ethyl)-phenol]
Oc1ccc(CCNc2nccc(-c3cccc(CN4CC5CC4CN5)c3)n2)cc1 (stereo not drawn) [Compound 266, 4-(2-{4-[3-(2,5-Diaza-bicyclo[2.2.1]hept-2-ylmethyl)-phenyl]-pyrimidin-2-ylamino}-ethyl)-phenol]
C[C@H]1CNCCN1S(=O)(=O)c1cccc(-c2ccnc(NCCc3ccc(O)c(Cl)c3)n2)c1 [Compound 278]
Cc1c(CN2CCNC[C@@H]2C)cccc1-c1ccnc(NCCc2ccc(O)cc2)n1 [Compound 284, 4-(2-(4-(2-methyl-3-(((S)-2-methylpiperazin-1-yl)methyl)phenyl)pyrimidin-2-ylamino)ethyl)phenol]
C[C@H]1CNCCN1Cc1cc(-c2ccnc(NCCc3ccc(O)cc3)n2)ccc1F [Compound 286, 4-(2-(4-(4-fluoro-3-(((S)-2-methylpiperazin-1-yl)methyl)phenyl)pyrimidin-2-ylamino)ethyl)phenol]
CCN(CCC1CCCCN1)Cc1cccc(-c2ccnc(NCCc3ccc(O)c(Cl)c3)n2)c1 (stereo not drawn) [Compound 289, 2-chloro-4-(2-(4-(3-((ethyl(2-(piperidin-2-yl)ethyl)amino)methyl)phenyl)pyrimidin-2-ylamino)ethyl)phenol]
Oc1ccc(CCNc2nccc(-c3cccc(CNCCc4ccccn4)c3)n2)cc1Cl [Compound 292, 2-chloro-4-(2-(4-(3-((2-(pyridinyl-2-yl)ethylamino)methyl)phenyl)pyrimidin-2-ylamino)ethyl)phenol]
